Source: patent publication US8557816B2, “Aurora kinase modulators and method of use” (Amgen Inc., priority 2007, dated 2013)

How the values were obtained:
AuroraB = molecular target: T1, AuroraB (Homo sapiens, UniProt Q96GD4); assay: AuroraB Homogeneous Time Resolved Fluorescent (HTRF) kinase assay; format: biochemical; conditions: average; read-out: AurB_IC50_IP (uM Avg)
T1 construct: 20 μL of AuroraB FL H is for a final volume of 41 μL; His
Outline: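 Full-length His-tagged kinase phosphorylates biotinylated Histone H3 (0.1 μM final) with ATP in pH 7.5 HEPES containing MgCl, MnCl, DTT and BSA for about 90 min. EDTA-containing detection mix with SA-APC and Eu-anti-phosphoHistone H3 then equilibrated about 60 min; HTRF read with 320 nm excitation, emissions 615/655 nm.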

AuroraA-TPX2 = molecular target: T2, AuroraA-TPX2 (Homo sapiens, UniProt O14965); assay: AuroraA-TPX2 Homogeneous Time Resolved Fluorescent (HTRF) kinase assay; format: biochemical; conditions: average; read-out: AurA_IC50_IP (uM Avg)
T2 construct: 20 μL of AuroraA-TPX2 KD GST for a final volume of about 41 μL; GST
T2 sequence (O14965 133-383 limits assumed): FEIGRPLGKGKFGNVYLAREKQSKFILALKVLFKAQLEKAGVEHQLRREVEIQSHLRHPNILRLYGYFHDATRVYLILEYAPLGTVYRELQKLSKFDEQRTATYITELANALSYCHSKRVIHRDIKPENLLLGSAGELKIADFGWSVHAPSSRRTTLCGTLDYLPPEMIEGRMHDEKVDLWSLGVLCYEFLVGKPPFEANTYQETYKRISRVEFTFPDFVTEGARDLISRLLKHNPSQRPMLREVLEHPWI
T2 sequence (Q9ULW0 1-43 partner limits assumed): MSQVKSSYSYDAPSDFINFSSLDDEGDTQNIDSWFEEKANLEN
Outline: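 HTRF read-out (Eu 615 nm to APC 655 nm) of phosphorylated biotin-PLK, detected with 0.02 nM europium anti-phosphoPLK antibody and 0.0005 mg/mL SA-APC after overnight equilibration.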

T1 sequence (Q96GD4 whole entry): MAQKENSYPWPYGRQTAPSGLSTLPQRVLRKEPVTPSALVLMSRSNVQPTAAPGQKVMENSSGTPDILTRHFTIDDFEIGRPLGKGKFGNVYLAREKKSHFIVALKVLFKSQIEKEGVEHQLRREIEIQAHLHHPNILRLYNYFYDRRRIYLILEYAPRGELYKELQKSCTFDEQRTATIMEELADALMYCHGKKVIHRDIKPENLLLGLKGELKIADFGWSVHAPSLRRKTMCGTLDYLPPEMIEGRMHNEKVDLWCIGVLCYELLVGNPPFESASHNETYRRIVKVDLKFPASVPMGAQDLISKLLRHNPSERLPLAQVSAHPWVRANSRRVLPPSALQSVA

IC50 (AuroraB) [µM]	IC50 (AuroraA-TPX2) [µM]	Compound
0.005	0.014	COc1cnc2c(Oc3ccc(Nc4nnc(-c5ccc(C)c(F)c5)c5ccccc45)cc3)ccnc2c1 [compound 243, 4-(3-fluoro-4-methylphenyl)-N-(4-((7-(methyloxy)-1,5-naphthyridin-4-yl)oxy)phenyl)-1-phthalazinamine]
0.006	0.153	Brc1cnc2c(Oc3ccc(Nc4nnc(-c5ccccc5)c5ccccc45)cc3)ccnc2c1 [compound 245, N-(4-((7-bromo-1,5-naphthyridin-4-yl)oxy)phenyl)-4-phenyl-1-phthalazinamine]
0.008	0.032	COc1cnc2c(Oc3ccc(Nc4nnc(-c5ccc(F)c(C)c5)c5ccccc45)cc3)ccnc2c1 [compound 246, 4-(4-fluoro-3-methylphenyl)-N-(4-((7-(methyloxy)-1,5-naphthyridin-4-yl)oxy)phenyl)-1-phthalazinamine]
0.032	0.219	COc1cnc2c(N(C)c3ccc(Nc4nnc(-c5cc(C)cs5)c5ccccc45)cc3)ccnc2c1 [compound 247, N-methyl-N-(7-(methyloxy)-1,5-naphthyridin-4-yl)-N′-(4-(4-methyl-2-thienyl)-1-phthalazinyl)-1,4-benzenediamine]
0.001	0.004	Cn1cncc1-c1cc2nccc(Oc3ccc(Nc4nnc(-c5ccc(Cl)cc5)c5ccccc45)cc3)c2s1 [compound 249, 4-(4-chlorophenyl)-N-(4-((2-(1-methyl-1H-imidazol-5-yl)thieno[3,2-b]pyridin-7-yl)oxy)phenyl)-1-phthalazinamine]
0.003	0.094	Clc1ccc(-c2nnc(Nc3ccc(Oc4ccnc5ccsc45)cc3)c3ccccc23)cc1 [compound 250, 4-(4-chlorophenyl)-N-(4-(thieno[3,2-b]pyridin-7-yloxy)phenyl)-1-phthalazinamine]
0.004	0.376	c1ccc(-c2nnc(Nc3ccc(Oc4ccnc5ccsc45)cc3)c3ccccc23)cc1 [compound 251, 4-phenyl-N-(4-(thieno[3,2-b]pyridin-7-yloxy)phenyl)-1-phthalazinamine]
0.005	0.077	Cc1ccc(-c2nnc(Nc3ccc(Oc4ccnc5ccsc45)cc3)c3ccccc23)cc1 [compound 252, 4-(4-methylphenyl)-N-(4-(thieno[3,2-b]pyridin-7-yloxy)phenyl)-1-phthalazinamine]
0.009	0.173	COc1cnc2c(Oc3ccc(Nc4nnc(-c5ccc(Cl)cc5OC)c5ccccc45)cc3)ccnc2c1 [compound 253, 4-(4-chloro-2-(methyloxy)phenyl)-N-(4-((7-(methyloxy)-1,5-naphthyridin-4-yl)oxy)phenyl)-1-phthalazinamine]
0.253	1.64	COc1cc2nncc(Oc3ccc(Nc4nnc(-c5ccccc5)c5ccccc45)cc3)c2cc1OC [compound 254, N-(4-((6,7-bis(methyloxy)-4-cinnolinyl)oxy)phenyl)-4-phenyl-1-phthalazinamine]
0.003	0.012	CCc1cc(-c2ccc(Cl)cc2)nnc1Nc1ccc(Oc2ccnc3cc(OC)cnc23)cc1 [compound 256, 6-(4-chlorophenyl)-4-ethyl-N-(4-((7-(methyloxy)-1,5-naphthyridin-4-yl)oxy)phenyl)-3-pyridazinamine]
0.129	0.868	c1ccc(-c2nnc(Nc3ccc(Oc4ncnc5nc[nH]c45)cc3)c3ccccc23)cc1 [compound 257, 4-phenyl-N-(4-(7H-purin-6-yloxy)phenyl)-1-phthalazinamine]
0.002	0.005	COc1cnc2c(Oc3ccc(Nc4nnc(-c5cccc(N(C)C)c5)c5ccccc45)cc3)ccnc2c1 [compound 258, 4-(3-(dimethylamino)phenyl)-N-(4-((7-(methyloxy)-1,5-naphthyridin-4-yl)oxy)phenyl)-1-phthalazinamine]
0.006	0.023	O=C(c1cc2nccc(Oc3ccc(Nc4nnc(-c5ccc(Cl)cc5)c5ccccc45)cc3)c2s1)N1CCOCC1 [compound 259, 4-(4-chlorophenyl)-N-(4-((2-(4-morpholinylcarbonyl)thieno-[3,2-b]pyridin-7-yl)oxy)phenyl)-1-phthalazinamine]
0.009	0.008	COc1cnc2c(Oc3ccc(Nc4nnc(-c5cc(C)c(C)s5)c5ccccc45)cc3)ccnc2c1 [compound 260, 4-(4,5-dimethyl-2-thienyl)-N-(4-((7-(methyloxy)-1,5-naphthyridin-4-yl)oxy)phenyl)-1-phthalazinamine]
0.156	1.61	COc1cnc2c(Oc3ccc(Nc4nnc(-c5c(C)nn(C)c5C)c5ccccc45)cc3)ccnc2c1 [compound 261, N-(4-((7-(methyloxy)-1,5-naphthyridin-4-yl)oxy)phenyl)-4-(1,3,5-trimethyl-1H-pyrazol-4-yl)-1-phthalazinamine]
0.006	0.102	COc1cnc2c(Oc3ccc(Nc4nnc(-c5ccc([S+](C)[O-])cc5)c5ccccc45)cc3)ccnc2c1 (stereo not drawn) [compound 262, N-(4-((7-(methyloxy)-1,5-naphthyridin-4-yl)oxy)phenyl)-4-(4-(methylsulfinyl)phenyl)-1-phthalazinamine]
0.002	0.036	COc1cnc2c(Oc3ccc(Nc4nnc(-c5ccc(S(C)(=O)=O)cc5)c5ccccc45)cc3)ccnc2c1 [compound 263, N-(4-((7-(methyloxy)-1,5-naphthyridin-4-yl)oxy)phenyl)-4-(4-(methylsulfonyl)phenyl)-1-phthalazinamine]
0.016	0.139	c1ccc(-c2nnc(Nc3ccc(Oc4ccnc5ccc(N6CCOCC6)cc45)cc3)c3ccccc23)cc1 [compound 264, N-(4-((6-(4-morpholinyl)-4-quinolinyl)oxy)phenyl)-4-phenyl-1-phthalazinamine]
0.009	0.113	N#Cc1cnc2c(Oc3ccc(Nc4nnc(-c5ccc(Cl)cc5)c5ccccc45)cc3)ccnc2c1 [compound 265, 8-((4-((4-(4-chlorophenyl)-1-phthalazinyl)amino)phenyl)oxy)-1,5-naphthyridine-3-carbonitrile]
0.045	0.679	Clc1ccc(-c2nnc(Nc3ccc(Oc4ncnc5[nH]cnc45)cc3)c3ccccc23)cc1 [compound 266, 4-(4-chlorophenyl)-N-(4-(9H-purin-6-yloxy)phenyl)-1-phthalazinamine]
0.003	0.064	COc1cnc2c(Oc3ccc(Nc4nnc(-c5ccc(C)nc5)c5ccccc45)cc3)ccnc2c1 [compound 268, N-(4-((7-(methyloxy)-1,5-naphthyridin-4-yl)oxy)phenyl)-4-(6-methyl-3-pyridinyl)-1-phthalazinamine]
0.006	0.049	COc1ccc2nccc(Oc3ccc(Nc4nnc(-c5cc(C)cs5)c5ccccc45)cc3)c2c1 [compound 269, N-(4-((6-(methyloxy)-4-quinolinyl)oxy)phenyl)-4-(4-methyl-2-thienyl)-1-phthalazinamine]
0.01	0.084	CCN(CC)C(=O)c1cc2nccc(Oc3ccc(Nc4nnc(-c5ccc(Cl)cc5)c5ccccc45)cc3)c2s1 [compound 270, 7-((4-((4-(4-chlorophenyl)-1-phthalazinyl)amino)phenyl)oxy)-N,N-diethylthieno[3,2-b]pyridine-2-carboxamide]
0.024	0.066	COc1cnc2c(Sc3ccc(Nc4nnc(-c5cc(C)cs5)c5ccccc45)cc3)ccnc2c1 [compound 271, N-(4-(7-methoxy-1,5-naphthyridin-4-ylthio)phenyl)-4-(4-methylthiophen-2-yl)phthalazin-1-amine]
0.001	0.033	c1ccc2c(-c3ccc4c(c3)CCO4)nnc(Nc3ccc(Oc4ccnc5ccsc45)cc3)c2c1 [compound 272, 4-(2,3-dihydrobenzofuran-5-yl)-N-(4-(thieno[3,2-b]pyridin-7-yloxy)phenyl)phthalazin-1-amine]
0.039	1.66	c1ccc(-c2nnc(Nc3ccc(Oc4ncnc5[nH]ccc45)cc3)c3ccccc23)cc1 [compound 273, N-(4-(7H-pyrrolo[2,3-d]pyrimidin-4-yloxy)phenyl)-4-phenylphthalazin-1-amine]
0.004	0.066	CCc1cc(-c2ccccc2)nnc1Nc1ccc(Sc2ccnc3cc(OC)cnc23)cc1 [compound 274, 4-ethyl-N-(4-(7-methoxy-1,5-naphthyridin-4-ylthio)phenyl)-6-phenylpyridazin-3-amine]
0.011	0.156	CCc1cc(-c2ccc(Cl)cc2)nnc1Nc1ccc(Oc2ccnc3cc(OC)cnc23)nc1 [compound 275, 6-(4-chlorophenyl)-4-ethyl-N-(6-(7-methoxy-1,5-naphthyridin-4-yloxy)pyridin-3-yl)pyridazin-3-amine]
0.018	0.67	Fc1cc(F)c2c(Oc3ccc(Nc4nnc(-c5ccccc5)c5ccccc45)cc3)ccnc2c1 [compound 276, N-(4-(5,7-difluoroquinolin-4-yloxy)phenyl)-4-phenylphthalazin-1-amine]
